From ChEMBL document CHEMBL5143723, “Orally Bioavailable Enzymatic Inhibitor of CD38, MK-0159, Protects against Ischemia/Reperfusion Injury in the Murine Heart” (J Med Chem, 2022)
In brackets after ≈: the same amount, converted by molar mass. Values belong to the compound of their own block, whether it stands above or below them. Activity calls are given as the source filed them. The calls are words filed in the database; no cut-off is given here.

How the values were obtained:
[1] = biological target: T1, ADP-ribosyl cyclase/cyclic ADP-ribose hydrolase 1 (Homo sapiens, UniProt P28907)
T1 sequence (P28907 whole entry): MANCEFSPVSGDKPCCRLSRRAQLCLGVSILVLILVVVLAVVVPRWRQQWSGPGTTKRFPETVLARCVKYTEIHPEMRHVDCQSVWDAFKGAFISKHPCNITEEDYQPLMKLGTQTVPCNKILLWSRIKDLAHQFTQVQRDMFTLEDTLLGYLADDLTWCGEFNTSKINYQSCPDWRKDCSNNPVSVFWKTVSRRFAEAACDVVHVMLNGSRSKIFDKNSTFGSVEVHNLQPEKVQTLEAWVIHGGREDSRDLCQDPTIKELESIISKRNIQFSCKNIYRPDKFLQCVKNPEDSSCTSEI
Description: Inhibition of human his tagged CD38 using N6-etheno-NAD as substrate by fluorescence microplate reader assay

[2] = Drug exposure in mouse plasma assessed as AUC of drug at 3 mg/kg, po; type: ADME, organism-based; parameters: dose 3 mg/kg, route po
[3] = AUC in non-human primates at 1 mg/kg, po; type: ADME, organism-based; parameters: dose 1 mg/kg, route po; details: in vivo
hERG = hERG (Homo sapiens, UniProt Q12809); assay: Inhibition of hERG (unknown origin) at 10 uM by patch clamp method; type: toxicity
[4] = AUC in non-human primates at 1 mg/kg, iv; type: ADME, organism-based; parameters: dose 1 mg/kg, route iv; details: in vivo
[5] = Half life in Sprague-Dawley rat at 1 mg/kg, iv; type: ADME, organism-based; details: in vivo
[6] = Volume of distribution at steady state in CD-1 mouse at 1 mg/kg, iv; type: ADME, organism-based; details: in vivo
[7] = Thermodynamic aqueous solubility of the compound; type: physicochemical; details: buffer; read-out: Therm_solubility
[8] = Plasma concentration in Sprague-Dawley rat at 10 to 90 mg/kg, via oral gavage by LC-MS/MS analysis; type: ADME, organism-based; details: in vivo, DDE = dose-dependent effect, dose 10-90 mg/kg
[9] = biological target: T2, ADP-ribosyl cyclase/cyclic ADP-ribose hydrolase 1 (Mus musculus, UniProt P56528); assay: Inhibition of mouse his tagged CD38 using N6-etheno-NAD as substrate by fluorescence microplate reader assay
T2 sequence (P56528 whole entry): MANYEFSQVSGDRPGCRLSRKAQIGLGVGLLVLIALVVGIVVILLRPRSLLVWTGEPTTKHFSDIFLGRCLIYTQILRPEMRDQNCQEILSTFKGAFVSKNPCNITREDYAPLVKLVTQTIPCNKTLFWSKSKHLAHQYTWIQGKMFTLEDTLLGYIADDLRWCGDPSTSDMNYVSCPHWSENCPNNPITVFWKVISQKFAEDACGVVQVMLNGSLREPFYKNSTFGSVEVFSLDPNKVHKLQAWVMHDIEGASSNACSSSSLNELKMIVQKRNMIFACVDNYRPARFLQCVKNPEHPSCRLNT

[10] = Half life in non-human primates at 1 mg/kg, po; type: ADME, organism-based; details: in vivo
CYP2C9 = CYP2C9 (Homo sapiens, UniProt P11712); assay: Inhibition of CYP2C9 (unknown origin) at 10 uM relative to control; type: ADME
Mus musculus [11] = species on record: Mus musculus; details: C57BL/6, dose 30.0 mg/kg, route po, time 4.0 hrs
[12] = Apparent permeability of compound across apical to basal membrane in human Caco-2 cells; type: ADME, cell-based
[13] = AUC in Sprague-Dawley rat at 1 mg/kg, iv; type: ADME, organism-based; parameters: dose 1 mg/kg, route iv; details: in vivo
[14] = Apparent permeability of compound across basolateral to apical side in human Caco-2 cells; type: ADME, cell-based
[15] = Oral bioavailability in non-human primates at 1 mg/kg; type: ADME, organism-based; details: in vivo
CYP2C19 = CYP2C19 (Homo sapiens, UniProt P33261); assay: Inhibition of CYP2C19 (unknown origin) at 10 uM relative to control; type: ADME
Mus musculus [16] = species on record: Mus musculus; details: dose 3-30 mg/kg, route po, time 6.0 hrs
Mus musculus [17] = species on record: Mus musculus; details: C57BL/6, dose 30.0 mg/kg, route po
Description: In vivo inhibition of CD38 in myocardial ischemia/reperfusion induced C57BL/6 mouse injury model assessed as change in cardiac NAD+ level at 30 mg/kg via oral gavage

[18] = Volume of distribution at steady state in non-human primates at 1 mg/kg, iv; type: ADME, organism-based; details: in vivo, read-out: Vdss
[19] = AUC in CD-1 mouse at 1 mg/kg, iv; type: ADME, organism-based; parameters: dose 1 mg/kg, route iv; details: in vivo
[20] = Half life in CD-1 mouse at 1 mg/kg, iv; type: ADME, organism-based; details: in vivo
[21] = Cmax in Sprague-Dawley rat at 10 mg/kg, po; type: ADME, organism-based; parameters: dose 10 mg/kg, route po; details: in vivo
[22] = Plasma protein binding in human; type: ADME, cell-free; details: read-out: PPB (converted)
[23] = Half life in CD-1 mouse at 3 mg/kg, po; type: ADME, organism-based; details: in vivo
CYP2C8 = biological target: T3, CYP2C8 (Homo sapiens, UniProt P10632); assay: Inhibition of CYP2C8 (unknown origin) at 10 uM relative to control; type: ADME
T3 sequence (P10632 whole entry): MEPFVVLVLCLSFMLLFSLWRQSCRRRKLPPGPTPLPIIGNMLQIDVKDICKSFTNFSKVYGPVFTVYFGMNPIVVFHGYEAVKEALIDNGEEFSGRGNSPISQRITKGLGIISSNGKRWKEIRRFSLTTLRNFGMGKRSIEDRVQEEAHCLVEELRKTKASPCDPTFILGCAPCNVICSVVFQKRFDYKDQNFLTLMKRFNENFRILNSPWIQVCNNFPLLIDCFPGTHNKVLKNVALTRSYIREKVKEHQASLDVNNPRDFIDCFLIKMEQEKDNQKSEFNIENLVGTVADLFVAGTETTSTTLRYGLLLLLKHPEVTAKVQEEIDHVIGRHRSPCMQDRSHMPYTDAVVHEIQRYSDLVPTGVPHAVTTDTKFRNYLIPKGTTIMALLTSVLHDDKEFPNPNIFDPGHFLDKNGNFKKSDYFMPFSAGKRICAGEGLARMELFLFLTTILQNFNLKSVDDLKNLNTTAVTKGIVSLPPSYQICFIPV

Mus musculus [24] = species on record: Mus musculus; details: dose 3-30 mg/kg, route po, time 6.0 hrs; remark: listed apart in the source
Mus musculus [25] = species on record: Mus musculus; details: C57BL/6, dose 30.0 mg/kg, route po, time 4.0 hrs; remark: listed apart in the source
[26] = In vivo inhibition of CD38 in po dosed mouse assessed as reduction in ADPR level in blood mg/kg measured after 6 hrs; type: functional, organism-based
CYP1A2 = biological target: T4, CYP1A2 (Homo sapiens, UniProt P05177); assay: Inhibition of CYP1A2 (unknown origin) at 10 uM relative to control; type: ADME
T4 sequence (P05177 whole entry): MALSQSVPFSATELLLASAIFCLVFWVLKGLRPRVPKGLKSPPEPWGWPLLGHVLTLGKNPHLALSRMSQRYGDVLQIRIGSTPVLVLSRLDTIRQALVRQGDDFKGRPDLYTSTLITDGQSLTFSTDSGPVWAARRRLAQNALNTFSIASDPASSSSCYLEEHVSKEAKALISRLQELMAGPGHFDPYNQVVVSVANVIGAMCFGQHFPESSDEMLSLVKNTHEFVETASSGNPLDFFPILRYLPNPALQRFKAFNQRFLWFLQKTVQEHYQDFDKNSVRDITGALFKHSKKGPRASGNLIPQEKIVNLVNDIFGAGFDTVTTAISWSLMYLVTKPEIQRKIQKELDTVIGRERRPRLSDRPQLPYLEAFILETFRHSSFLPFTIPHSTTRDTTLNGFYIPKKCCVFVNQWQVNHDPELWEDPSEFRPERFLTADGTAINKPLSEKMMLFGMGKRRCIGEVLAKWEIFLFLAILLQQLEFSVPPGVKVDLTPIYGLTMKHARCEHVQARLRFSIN

[27] = biological target: T5, ADP-ribosyl cyclase/cyclic ADP-ribose hydrolase 1 (Rattus norvegicus, UniProt Q64244); assay: Inhibition of rat CD38 using N6-etheno-NAD as substrate by fluorescence microplate reader assay
T5 sequence (Q64244 whole entry): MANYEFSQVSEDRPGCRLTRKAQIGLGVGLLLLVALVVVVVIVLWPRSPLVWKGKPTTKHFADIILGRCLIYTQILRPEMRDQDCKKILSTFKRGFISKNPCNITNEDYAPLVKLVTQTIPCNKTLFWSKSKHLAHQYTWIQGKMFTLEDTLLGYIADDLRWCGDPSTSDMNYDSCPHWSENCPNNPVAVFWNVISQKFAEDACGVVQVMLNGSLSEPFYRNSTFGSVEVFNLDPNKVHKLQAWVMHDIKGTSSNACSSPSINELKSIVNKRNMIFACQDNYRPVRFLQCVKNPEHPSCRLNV

[28] = AUC in CD-1 mouse at 3 mg/kg, po; type: ADME, organism-based; parameters: dose 3 mg/kg, route po; details: in vivo
[29] = Plasma concentration in CD1 mouse at 10 to 90 mg/kg, via oral gavage by LC-MS/MS analysis; type: ADME, organism-based; details: in vivo, DDE = dose-dependent effect, dose 10-90 mg/kg
Mus musculus [30] = species on record: Mus musculus; details: C57BL/6, dose 30.0 mg/kg, route po, time 4.0 hrs; remark: listed apart in the source
[31] = Plasma protein binding in mouse; type: ADME, cell-free; details: read-out: PPB (converted)
[32] = Cmax in CD-1 mouse at 3 mg/kg, po; type: ADME, organism-based; parameters: dose 3 mg/kg, route po; details: in vivo
[33] = Cmax in non-human primates at 1 mg/kg, po; type: ADME, organism-based; parameters: dose 1 mg/kg, route po; details: in vivo
[34] = Kinetic aqueous solubility of the compound; type: physicochemical; details: buffer; read-out: Kinetic_solubility
Mus musculus [35] = species on record: Mus musculus; details: dose 3-30 mg/kg, route po, time 6.0 hrs; remark: listed apart in the source
Mus musculus [36] = species on record: Mus musculus; details: dose 3-30 mg/kg, route po, time 6.0 hrs; remark: listed apart in the source
[37] = Volume of distribution at steady state in Sprague-Dawley rat at 1 mg/kg, iv; type: ADME, organism-based; details: in vivo
[38] = In vivo inhibition of CD38 in po dosed mouse assessed as reduction in ADPR level in heart measured after 6 hrs; type: functional, organism-based
[39] = Half life in Sprague-Dawley rat at 10 mg/kg, po; type: ADME, organism-based; details: in vivo
[40] = AUC in Sprague-Dawley rat at 10 mg/kg, po; type: ADME, organism-based; parameters: dose 10 mg/kg, route po; details: in vivo
[41] = Half life in non-human primates at 1 mg/kg, iv; type: ADME, organism-based; details: in vivo
CYP2D6 = CYP2D6 (Homo sapiens, UniProt P10635); assay: Inhibition of CYP2D6 (unknown origin) at 10 uM relative to control; type: ADME
[42] = Plasma protein binding in rat; type: ADME, cell-free; details: read-out: PPB (converted)

Chain of CYP2C19 (P33261 whole entry): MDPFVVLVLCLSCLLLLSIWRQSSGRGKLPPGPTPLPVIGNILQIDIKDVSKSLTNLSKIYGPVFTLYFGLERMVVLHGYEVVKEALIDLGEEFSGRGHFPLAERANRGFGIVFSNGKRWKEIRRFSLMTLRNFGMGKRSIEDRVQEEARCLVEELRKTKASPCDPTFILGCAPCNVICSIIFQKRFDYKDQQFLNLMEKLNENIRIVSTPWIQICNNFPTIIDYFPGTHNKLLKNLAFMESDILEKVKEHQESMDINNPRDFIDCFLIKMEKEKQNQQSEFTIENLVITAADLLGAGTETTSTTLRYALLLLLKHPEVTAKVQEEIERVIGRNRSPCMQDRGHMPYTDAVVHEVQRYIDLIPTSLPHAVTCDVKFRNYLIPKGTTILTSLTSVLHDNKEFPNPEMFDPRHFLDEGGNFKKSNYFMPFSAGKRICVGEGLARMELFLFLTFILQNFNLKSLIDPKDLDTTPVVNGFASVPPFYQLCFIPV
Chain of CYP2D6 (P10635 whole entry): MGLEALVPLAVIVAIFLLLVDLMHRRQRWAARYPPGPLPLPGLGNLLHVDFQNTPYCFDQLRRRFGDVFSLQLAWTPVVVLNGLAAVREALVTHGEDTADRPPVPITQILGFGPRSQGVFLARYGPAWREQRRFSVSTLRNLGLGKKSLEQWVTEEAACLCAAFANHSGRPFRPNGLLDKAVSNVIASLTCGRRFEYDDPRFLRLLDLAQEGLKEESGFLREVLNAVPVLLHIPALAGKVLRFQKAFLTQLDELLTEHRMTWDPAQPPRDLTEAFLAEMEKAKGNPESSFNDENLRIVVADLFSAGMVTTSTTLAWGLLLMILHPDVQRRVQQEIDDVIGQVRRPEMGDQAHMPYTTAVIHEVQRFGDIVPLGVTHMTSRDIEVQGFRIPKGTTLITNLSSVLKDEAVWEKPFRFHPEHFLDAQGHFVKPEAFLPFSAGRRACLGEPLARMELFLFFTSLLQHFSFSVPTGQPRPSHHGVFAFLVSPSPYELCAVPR
Chain of hERG (Q12809 whole entry): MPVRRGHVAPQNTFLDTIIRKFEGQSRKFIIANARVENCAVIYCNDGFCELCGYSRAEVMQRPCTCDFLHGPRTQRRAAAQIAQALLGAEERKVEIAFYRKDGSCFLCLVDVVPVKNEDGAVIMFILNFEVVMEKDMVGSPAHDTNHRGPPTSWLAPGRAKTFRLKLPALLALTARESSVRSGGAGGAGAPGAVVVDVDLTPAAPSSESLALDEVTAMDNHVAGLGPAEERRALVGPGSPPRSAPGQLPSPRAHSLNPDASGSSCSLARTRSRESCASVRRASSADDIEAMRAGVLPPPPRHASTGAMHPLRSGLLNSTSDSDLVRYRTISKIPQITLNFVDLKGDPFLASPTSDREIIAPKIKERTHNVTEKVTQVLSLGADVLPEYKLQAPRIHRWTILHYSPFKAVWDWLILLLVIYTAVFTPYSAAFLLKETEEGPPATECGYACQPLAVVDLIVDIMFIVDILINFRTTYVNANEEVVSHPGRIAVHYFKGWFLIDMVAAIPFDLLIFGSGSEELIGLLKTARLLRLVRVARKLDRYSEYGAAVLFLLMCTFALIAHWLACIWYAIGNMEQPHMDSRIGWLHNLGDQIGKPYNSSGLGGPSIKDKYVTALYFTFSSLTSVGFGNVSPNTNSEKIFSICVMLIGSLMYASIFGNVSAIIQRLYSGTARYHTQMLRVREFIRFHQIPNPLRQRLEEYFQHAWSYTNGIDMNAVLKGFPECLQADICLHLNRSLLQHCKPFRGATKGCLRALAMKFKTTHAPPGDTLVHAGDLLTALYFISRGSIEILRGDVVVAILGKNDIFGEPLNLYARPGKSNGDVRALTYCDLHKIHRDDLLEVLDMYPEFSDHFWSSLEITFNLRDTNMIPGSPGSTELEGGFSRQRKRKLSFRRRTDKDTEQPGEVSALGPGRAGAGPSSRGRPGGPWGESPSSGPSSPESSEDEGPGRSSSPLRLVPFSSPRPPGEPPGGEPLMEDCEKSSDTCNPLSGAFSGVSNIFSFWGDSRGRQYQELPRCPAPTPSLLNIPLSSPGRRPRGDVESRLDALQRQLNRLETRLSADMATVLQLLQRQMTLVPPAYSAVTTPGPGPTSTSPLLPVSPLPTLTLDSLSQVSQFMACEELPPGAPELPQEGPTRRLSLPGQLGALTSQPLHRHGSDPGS
Chain of CYP2C9 (P11712 whole entry): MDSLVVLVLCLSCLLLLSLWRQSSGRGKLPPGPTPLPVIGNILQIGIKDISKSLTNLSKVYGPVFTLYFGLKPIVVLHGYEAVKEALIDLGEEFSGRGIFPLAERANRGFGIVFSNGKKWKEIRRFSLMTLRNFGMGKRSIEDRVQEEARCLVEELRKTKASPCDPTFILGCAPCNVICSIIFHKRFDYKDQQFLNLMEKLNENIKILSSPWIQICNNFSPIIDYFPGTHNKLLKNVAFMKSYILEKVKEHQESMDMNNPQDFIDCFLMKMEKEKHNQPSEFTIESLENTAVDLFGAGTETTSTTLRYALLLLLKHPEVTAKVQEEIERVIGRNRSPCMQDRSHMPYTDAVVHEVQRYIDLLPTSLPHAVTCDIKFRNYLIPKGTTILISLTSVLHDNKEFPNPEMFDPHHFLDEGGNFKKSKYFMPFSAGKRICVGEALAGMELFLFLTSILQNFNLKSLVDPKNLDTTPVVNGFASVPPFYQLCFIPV

SMILES: COCCO[C@H]1CC[C@H](CNC(=O)c2cc(-c3cncs3)cc3[nH]ccc23)CC1
- IC50 [1]: 6 µM

SMILES: COCCO[C@H]1CC[C@H](NC(=O)c2cc(-c3cncs3)cc3[nH]cc(C#N)c23)CC1
- AUC [2]: 75 ng·h/mL

SMILES: COCCO[C@H]1CC[C@H](NC(=O)c2cc(-n3ccnc3)cc3cn[nH]c23)CC1
- AUC [2]: 207 ng·h/mL

SMILES: COCCO[C@H]1CC[C@H](NC(=O)c2cc(-c3cncs3)nc3[nH]ccc23)CC1
- AUC [3]: 1740 ng·h/mL
- inhibition at 10 µM (hERG): < 10%
- AUC [4]: 1670 ng·h/mL
- t1/2 [5]: 3 h
- Vdss [6]: 1.1 L/kg
- solubility thermodynamic [7]: 10 µg/mL (≈ 25 µM)
- Activity [8]: Dde
- IC50 [9]: 3 nM
- half-life [10]: 180 min
- inhibition at 10 µM (CYP2C9): < 15%
- inhibition (Mus musculus [11]): Active
- Papp A→B [12]: 17.5 ×10⁻⁶ cm/s
- AUC [13]: 4810 ng·h/mL
- Papp B→A [14]: 29.6 ×10⁻⁶ cm/s
- bioavailability [15]: 100%
- inhibition at 10 µM (CYP2C19): < 15%
- inhibition (Mus musculus [16]): Active
- inhibition (Mus musculus [17]): Active
- Vd [18]: 0.9 L/kg
- AUC [19]: 1295 ng·h/mL
- t1/2 [20]: 1 h
- Cmax [21]: 9.91 ng/mL
- fraction unbound [22]: 0.209
- half-life [23]: 72 min
- inhibition at 10 µM (CYP2C8): < 15%
- inhibition (Mus musculus [24]): Active
- inhibition (Mus musculus [25]): Active
- EC50 [26]: 40 nM
- inhibition at 10 µM (CYP1A2): < 15%
- IC50 [27]: 70 nM
- AUC [28]: 10400 ng·h/mL
- Activity [29]: Dde
- inhibition (Mus musculus [30]): Active
- fraction unbound [31]: 0.206
- Cmax [32]: 4230 ng/mL
- Cmax [33]: 710 ng/mL
- solubility kinetic [34]: 25 µM (≈ 10 µg/mL)
- inhibition (Mus musculus [35]): Active
- inhibition (Mus musculus [36]): Active
- Vdss [37]: 9 L/kg
- EC50 [38]: 181 nM
- half-life [39]: 162 min
- AUC [40]: 60400 ng·h/mL
- AUC [2]: 10400 ng·h/mL
- half-life [41]: 186 min
- inhibition at 10 µM (CYP2D6): < 15%
- fraction unbound [42]: 0.047

SMILES: COCCO[C@H]1CC[C@H](NC(=O)c2cc(-c3cncs3)cn3ccnc23)CC1
- IC50 [1]: > 100 µM

Now from value to compound:

- AUC [2]: 6980 ng·h/mL
SMILES: COCCO[C@H]1CC[C@H](NC(=O)c2cc(-c3cncs3)cc3[nH]ccc23)CC1

- IC50 [1]: > 100 µM
SMILES: COCCO[C@H]1CC[C@H](NC(=O)c2cc(-c3cnn(C)c3)cc3cc[nH]c23)CC1

- IC50 [1]: > 100 µM
SMILES: COCCO[C@H]1CC[C@H](NC(=O)c2cc(-c3cscn3)cc3cc[nH]c23)CC1
